Measured values reported in ChEMBL document CHEMBL1201862, “PubChem BioAssay data set” (2004).
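A five-concentration, 48-hour dose response in 96-well plates underlies each endpoint, interpolated linearly between surrounding concentrations. Abbreviation: GI50, concentration required for 50% inhibition of growth.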 Calls of active or inactive are those of the source. Cut-off read from the data, not from the text of the source: active = GI50 up to about 1.1 µM and inactive = higher.

Key:
Assay in all cases: NCI-60 cell line screen, 48 h
ACHN = tested on: ACHN
CCRF-CEM = tested on: CCRF-CEM
COLO 205 = tested on: COLO 205
EKVX = tested on: EKVX
HOP-92 = tested on: HOP-92
HT-29 = tested on: HT-29
K562 = tested on: K562
MDA-MB-231 = tested on: MDA-MB-231
MDA-MB-435 = tested on: MDA-MB-435
NCI-H226 = tested on: NCI-H226
NCI-H522 = tested on: NCI-H522
RXF 393 = tested on: RXF 393
SNB-19 = tested on: SNB-19
T47D = tested on: T47D
TK-10 = tested on: TK-10
U-251 = tested on: U-251
UACC-257 = tested on: UACC-257
UO-31 = tested on: UO-31
RPMI-8226 = tested on: RPMI-8226
HL-60 = tested on: HL-60

Measured: GI50

Cc1sc(Nc2ccc(Nc3nc(-c4ccccc4)c(C)s3)cc2)nc1-c1ccccc1
inactive: ACHN 36.5 µM | CCRF-CEM 2.29 µM | COLO 205 16.2 µM | EKVX > 100 µM | HOP-92 > 100 µM | HT-29 60 µM | K562 18.6 µM | MDA-MB-231 42 µM | MDA-MB-435 > 100 µM | NCI-H226 63.1 µM | NCI-H522 35.4 µM | RXF 393 8.67 µM | SNB-19 > 100 µM | T47D 8.95 µM | TK-10 57.8 µM | U-251 13.7 µM | UACC-257 43.1 µM | UO-31 89.7 µM

COc1cc(C2SC(=N)Nc3c2c(C)nn3C(=O)c2ccccc2O)cc(OC)c1OC (centres undefined)
inactive: ACHN 4.32 µM | CCRF-CEM 3.85 µM | COLO 205 > 10 µM | EKVX > 10 µM | HOP-92 3.12 µM | HT-29 > 10 µM | K562 2.81 µM | MDA-MB-231 7.89 µM | MDA-MB-435 6.78 µM | NCI-H226 > 10 µM | RPMI-8226 > 10 µM | RXF 393 8.51 µM | SNB-19 8.71 µM | T47D 3.26 µM | TK-10 > 10 µM | U-251 6.76 µM | UACC-257 > 10 µM | UO-31 6.18 µM

COC(=O)/C=C\[C@@H]1[C@H](C)N1S(=O)(=O)c1ccc(C)cc1 (some centres undefined)
inactive: ACHN > 100 µM | CCRF-CEM > 100 µM | COLO 205 > 100 µM | HL-60 > 100 µM | HT-29 > 100 µM | K562 > 100 µM | MDA-MB-231 > 100 µM | MDA-MB-435 > 100 µM | NCI-H226 > 100 µM | NCI-H522 > 100 µM | RPMI-8226 > 100 µM | RXF 393 > 100 µM | SNB-19 > 100 µM | T47D > 100 µM | TK-10 > 100 µM | U-251 > 100 µM | UACC-257 > 100 µM

COc1ccc2c(c1O)C13CCN(C)C(C2)C1CCC1(C3)OCCO1 (centres undefined)
inactive: ACHN > 100 µM | COLO 205 > 100 µM | EKVX > 100 µM | HOP-92 > 100 µM | HT-29 > 100 µM | MDA-MB-231 > 100 µM | MDA-MB-435 > 100 µM | NCI-H226 > 100 µM | NCI-H522 > 100 µM | RPMI-8226 > 100 µM | RXF 393 > 100 µM | SNB-19 > 100 µM | T47D > 100 µM | TK-10 > 100 µM | U-251 > 100 µM | UACC-257 > 100 µM | UO-31 > 100 µM

Cc1nn(CNc2ccc(F)c(Cl)c2)c(=S)n1/N=C/c1ccc(-c2ccc(Cl)cc2Cl)o1
inactive: ACHN 16.6 µM | CCRF-CEM 4.16 µM | EKVX 16.4 µM | HL-60 1.44 µM | HT-29 19.6 µM | K562 1.49 µM | MDA-MB-231 17.8 µM | MDA-MB-435 17.6 µM | NCI-H226 17.2 µM | NCI-H522 14.4 µM | RPMI-8226 14.8 µM | RXF 393 17.9 µM | T47D 18.5 µM | TK-10 15.3 µM | U-251 14.7 µM | UACC-257 22.3 µM | UO-31 16.7 µM

CC1(C)OCC2OC3([C@H](O)CCO)OC(C)(C)OC3C2O1 (some centres undefined)
inactive: ACHN > 100 µM | CCRF-CEM > 100 µM | COLO 205 > 100 µM | EKVX > 100 µM | HOP-92 > 100 µM | HT-29 > 100 µM | K562 > 100 µM | MDA-MB-231 > 100 µM | MDA-MB-435 > 100 µM | NCI-H226 > 100 µM | RPMI-8226 > 100 µM | RXF 393 > 100 µM | SNB-19 > 100 µM | T47D > 100 µM | U-251 > 100 µM | UACC-257 > 100 µM | UO-31 > 100 µM

C[C@H](C/C=C/C(C)(C)O)[C@H]1CC[C@@]2(C)[C@@H]3CC[C@H]4C(C)(C)[C@@H](O)CC[C@@]45C[C@@]35CC[C@]12C
inactive: ACHN 6.35 µM | EKVX 14.1 µM | HOP-92 11.3 µM | HT-29 26 µM | K562 6.31 µM | MDA-MB-231 15.4 µM | MDA-MB-435 20.5 µM | NCI-H226 17.1 µM | NCI-H522 2.37 µM | RPMI-8226 15.8 µM | SNB-19 25.5 µM | T47D 27 µM | TK-10 13 µM | U-251 17.4 µM | UACC-257 17.9 µM | UO-31 23.3 µM

c1ccc2c(c1)CC1=C(O2)c2ccccc2OC1
inactive: ACHN 34.2 µM | CCRF-CEM 32.7 µM | COLO 205 18.9 µM | EKVX 16.1 µM | HOP-92 21.2 µM | HT-29 31.6 µM | MDA-MB-231 31.8 µM | MDA-MB-435 27.3 µM | NCI-H226 50.2 µM | NCI-H522 19.5 µM | RPMI-8226 21.8 µM | T47D 17 µM | TK-10 33.2 µM | U-251 22.3 µM | UACC-257 28.2 µM | UO-31 41.2 µM

CC(NC(=O)C(N)CC(=O)O)NC(=O)N(C)C(C)(C)C (centres undefined)
inactive: ACHN > 100 µM | CCRF-CEM > 100 µM | COLO 205 > 100 µM | EKVX > 100 µM | HL-60 > 100 µM | HT-29 > 100 µM | K562 > 100 µM | MDA-MB-231 > 100 µM | MDA-MB-435 > 100 µM | NCI-H226 > 100 µM | NCI-H522 > 100 µM | RPMI-8226 > 100 µM | RXF 393 > 100 µM | SNB-19 > 100 µM | T47D > 100 µM | TK-10 > 100 µM | U-251 > 100 µM | UACC-257 > 100 µM | UO-31 > 100 µM

CN(C(=O)Cc1ccccc1)n1cnn(CC(=O)OC(C)(C)C)c1=S
inactive: ACHN > 10 µM | CCRF-CEM > 10 µM | COLO 205 > 10 µM | EKVX > 10 µM | HOP-92 > 10 µM | HT-29 > 10 µM | K562 > 10 µM | MDA-MB-231 > 10 µM | MDA-MB-435 > 10 µM | NCI-H522 > 10 µM | RPMI-8226 > 10 µM | SNB-19 > 10 µM | T47D > 10 µM | TK-10 > 10 µM | U-251 > 10 µM | UACC-257 > 10 µM | UO-31 > 10 µM

CC[S+]([O-])C(=O)N(O)c1ccc(Cl)cc1 (centres undefined)
inactive: ACHN 11.1 µM | CCRF-CEM 12.6 µM | COLO 205 36 µM | EKVX 26.7 µM | HOP-92 29.9 µM | K562 16.2 µM | MDA-MB-231 29.4 µM | MDA-MB-435 15 µM | NCI-H226 84.1 µM | RPMI-8226 1.24 µM | RXF 393 19.7 µM | SNB-19 60.7 µM | T47D 31.3 µM | TK-10 35.8 µM | U-251 19.4 µM | UACC-257 23.2 µM | UO-31 14.5 µM
